These are literature values, as cited in patent US20150044284A1, “DOSAGE FORM COMPRISING A STEROID 5-ALPHA-REDUCTASE INHIBITOR AND AN ALPHA BLOCKER, PROCESS FOR PREPARING OF A DOSAGE FORM, USE OF DOSAGE FORM, METHOD FOR THE TREATMENT OR PROPHYLAXIS OF A DISEASE OR CONDITION MEDIATED BY ANDROGEN” (EMS S.A., priority 2013, published 2015).

Data set [1] deals with DHT (dihydrotestosterone). The settings on record: after only two weeks.

In the case of `C[C@]12C=CC(=O)N[C@@H]1CC[C@@H]1[C@@H]2CC[C@]2(C)[C@@H](C(=O)Nc3cc(C(F)(F)F)ccc3C(F)(F)F)CC[C@@H]12` [dutasteride], the Solubility in water result is reported as “completely insoluble in water”. In addition, the “Reduction of DHT levels” value in data set [1] is 90%.
